Tests used:
Format in all cases: cell-based
Burkholderia cepacia = test: MIC, agar dilution (bacteria); conditions: Burkholderia cepacia (B); Caso-Agar, pH 7 (+/−0.2)
Procedure: (§1) For testing the inhibition of bacteria, the sample was diluted in demineralized water and added in different concentrations to liquid Caso-Agar at 50° C. and is buffered to pH 7 (+/−0.2). […] Each of the solutions is poured into a petri-dish and inoculated with the same amount of bacteria, yeast or mold respectively. The minimum inhibitory concentration (MIC) is the lowest concentration of the sample that inhibits the growth of the respective microorganism where the next lowest dilution fails to inhibit the growth of said microorganism.

Enterobacter aerogenes = test: MIC, agar dilution (bacteria); conditions: Enterobacter aerogenes (B); Caso-Agar, pH 7 (+/−0.2)
Procedure: as §1

Escherichia coli = test: MIC, agar dilution (bacteria); conditions: Escherichia coli (B); Caso-Agar, pH 7 (+/−0.2)
Procedure: as §1

Klebsiella pneumoniae = test: MIC, agar dilution (bacteria); conditions: Klebsiella pneumoniae (B); Caso-Agar, pH 7 (+/−0.2)
Procedure: as §1

Pluralibacter gergoviae = test: MIC, agar dilution (bacteria); conditions: Pluralibacter gergoviae (B); Caso-Agar, pH 7 (+/−0.2)
Procedure: as §1

Pseudomonas aeruginosa = test: MIC, agar dilution (bacteria); conditions: Pseudomonas aeruginosa (B); Caso-Agar, pH 7 (+/−0.2)
Procedure: as §1

Serratia marcescens = test: MIC, agar dilution (bacteria); conditions: Serratia marcescens (B); Caso-Agar, pH 7 (+/−0.2)
Procedure: as §1

Staphylococcus aureus = test: MIC, agar dilution (bacteria); conditions: Staphylococcus aureus (B); Caso-Agar, pH 7 (+/−0.2)
Procedure: as §1

Aspergillus brasiliensis = test: MIC, agar dilution (yeast and mold); conditions: Aspergillus brasiliensis (M); Sabouraud-4% Dextrose-Agar, pH 5.6 (+/−0.2)
Procedure: as §1

Aspergillus terreus = test: MIC, agar dilution (yeast and mold); conditions: Aspergillus terreus (M); Sabouraud-4% Dextrose-Agar, pH 5.6 (+/−0.2)
Procedure: as §1

Candida albicans = test: MIC, agar dilution (yeast and mold); conditions: Candida albicans (Y); Sabouraud-4% Dextrose-Agar, pH 5.6 (+/−0.2)
Procedure: as §1

Candida parapsilosis = test: MIC, agar dilution (yeast and mold); conditions: Candida parapsilosis (Y); Sabouraud-4% Dextrose-Agar, pH 5.6 (+/−0.2)
Procedure: as §1

Fusarium solani = test: MIC, agar dilution (yeast and mold); conditions: Fusarium solani (M); Sabouraud-4% Dextrose-Agar, pH 5.6 (+/−0.2)
Procedure: as §1

Penicillium funicolosum = test: MIC, agar dilution (yeast and mold); conditions: Penicillium funicolosum (M); Sabouraud-4% Dextrose-Agar, pH 5.6 (+/−0.2)
Procedure: as §1

Penicillium minioluteum = test: MIC, agar dilution (yeast and mold); conditions: Penicillium minioluteum (M); Sabouraud-4% Dextrose-Agar, pH 5.6 (+/−0.2)
Procedure: as §1

Saccharomyces cerevisiae = test: MIC, agar dilution (yeast and mold); conditions: Saccharomyces cerevisiae (Y); Sabouraud-4% Dextrose-Agar, pH 5.6 (+/−0.2)
Procedure: as §1

Cyclic N-Octanoyl/Decanoyl-N-Methylxylosamide [N-Methyl Xylosamid]
MIC of N-Methyl Xylosamid* (70% active) in water (Burkholderia cepacia): 7500 ppm
MIC of N-Methyl Xylosamid* (70% active) in water (Enterobacter aerogenes): 15000 ppm
MIC of N-Methyl Xylosamid* (70% active) in water (Escherichia coli): 15000 ppm
MIC of N-Methyl Xylosamid* (70% active) in water (Klebsiella pneumoniae): 1000 ppm
MIC of N-Methyl Xylosamid* (70% active) in water (Pluralibacter gergoviae): 15000 ppm
MIC of N-Methyl Xylosamid* (70% active) in water (Pseudomonas aeruginosa): 10000 ppm
MIC of N-Methyl Xylosamid* (70% active) in water (Serratia marcescens): 10000 ppm
MIC of N-Methyl Xylosamid* (70% active) in water (Staphylococcus aureus): <500 ppm
MIC of N-Methyl Xylosamid* (70% active) in water (Aspergillus brasiliensis): 2000 ppm
MIC of N-Methyl Xylosamid* (70% active) in water (Aspergillus terreus): 3000 ppm
MIC of N-Methyl Xylosamid* (70% active) in water (Candida albicans): 3000 ppm
MIC of N-Methyl Xylosamid* (70% active) in water (Candida parapsilosis): 7500 ppm
MIC of N-Methyl Xylosamid* (70% active) in water (Fusarium solani): 1000 ppm
MIC of N-Methyl Xylosamid* (70% active) in water (Penicillium funicolosum): 1000 ppm
MIC of N-Methyl Xylosamid* (70% active) in water (Penicillium minioluteum): 1500 ppm
MIC of N-Methyl Xylosamid* (70% active) in water (Saccharomyces cerevisiae): 1000 ppm
